Results taken from patent US10981884B2, “Process for the preparation of epoprostenol sodium of enhanced stability” (CHINOIN GYÓGYSZER ÉS VEGYÉSZETI TERMÉKEK GYÁRA ZRT., priority 2016, dated 2021).
Several values for one entry are separate records, joined by “and”; a condition that tells them apart may be missing. Equal entries are not always repeated.

How the values were obtained:
[1] = pH of 1% aqueous lyophilisate solution; type: physicochemical
Method: (§1) For this purpose the excess alkali which may be present in the epoprostenol Na salt was removed with strongly acidic cation exchange DOWEX resin, to the aqueous solution of the salt not containing excess alkali, different amounts of sodium hydroxide were added and the obtained solutions were lyophilized. From the 1% aqueous lyophilisate solutions we measured the pH and started accelerated stability studies at room temperature, in closed glass vessels.

[2] = Storage stability in refrigerator (5±3° C.), 6-oxo-PGF1alpha impurity content by HPLC; type: physicochemical; conditions: for 6-oxo-PGF1alpha content (HPLC): refrigerator (5 ± 3° C.), 4 mass % NaOH excess
Method: (§2) Based on these unexpected experimental results we modified our new technology, we dissolved the funnel-wet, crystalline epoprostenol sodium salt in water, to the aqueous solution we added 2M NaOH solution in such an amount that the product, after lyophilisation contains 4 mass % excess of sodium hydroxide. The epoprostenol Na prepared by the new method may be stored in refrigerator (5±3° C.) for at least 6 months (Table 3.).

[3] = Storage stability in deep-freezer (−20±5° C.), 6-oxo-PGF1alpha impurity content by HPLC; type: physicochemical; conditions: 4-5-6% NaOH excesses compared
[4] = −30° C., white powder; cited from earlier work
[5] = Storage stability in deep-freezer (−20±5° C.), 6-oxo-PGF1alpha impurity content by HPLC; type: physicochemical; conditions: for 6-oxo-PGF1alpha content (HPLC): deep-freezer (−20 ± 5° C.), 4 mass % NaOH excess
Method: as §2, with “The stability of the” for “The”, “by this” for “by the”, “method is excellent, it can” for “method may”, “in deep-freezer (−20±5°” for “in refrigerator (5±3°”, “least 3 years.” for “least 6 months (Table 3.).”

[6] = Accelerated stability study of lyophilisates at room temperature in closed glass vessels, active ingredient content followed by HPLC; type: physicochemical; conditions: closed glass vessel
Method: as §1, with “We investigated the effect of the sodium hydroxide amount used for the salt formation on the stability of the acid-sensitive epoprostenol Na. For” for “For”, “vessels. The change of the active ingredient content of the stability samples was followed by HPLC after 0, 24, 48 and 144 hours. From the measured active ingredient contents decomposition rates of epoprostenol Na have been calculated (Table 1.).” for “vessels.”

[7] = aqueous solution at physiological pH; cited from earlier work

CCCCC[C@H](O)/C=C/[C@@H]1[C@H]2C/C(=C/CCCC(=O)[O-])O[C@H]2C[C@H]1O.[Na+] [Epoprostenol Na, (5Z,9α,11α,13E,15S)-6,9-Epoxy-11,15-dihydroxyprosta-5,13-dien-1-acid sodium salt]
pH (1% aqueous solution) ([1]; lyophilisate with 0.25 mass % NaOH added, sodium salt): 9.98 and 10.14
pH (1% aqueous solution) ([1]; lyophilisate with 2.5 mass % NaOH added): 11.64
pH (1% aqueous solution) ([1]; lyophilisate with 3.0 mass % NaOH added): 11.70
pH (1% aqueous solution) ([1]; lyophilisate with 4.0 mass % NaOH added): 11.78
pH (1% aqueous solution) ([1]; lyophilisate with 5.0 mass % NaOH added): 11.86
pH (1% aqueous solution) ([1]; lyophilisate with 5.5 mass % NaOH added): 11.90
pH (1% aqueous solution) ([1]; lyophilisate with 6.0 mass % NaOH added): 11.92
pH (1% aqueous solution) ([1]; lyophilisate with 7.5 mass % NaOH added): 12.00
pH (1% aqueous solution) ([1]; lyophilisate with 12.5 mass % NaOH added): 12.15
6-oxo-PGF1alpha content (HPLC) ([2]; month 0): 0.2 mass %
6-oxo-PGF1alpha content (HPLC) ([2]; month 1): 0.3 mass %
6-oxo-PGF1alpha content (HPLC) ([2]; month 3): 0.4 mass %
6-oxo-PGF1alpha content (HPLC) ([2]; month 6): 0.2 mass %
storage time (may be stored) ([2]; refrigerator (5±3° C.), lyophilisate with 4 mass % NaOH excess): at least 6 months
stability in the storage praxis [3]: equally good
time lyophilisate remained stable [4]: at least two
6-oxo-PGF1alpha content (HPLC) ([5]; month 0): 0.2 mass %
6-oxo-PGF1alpha content (HPLC) ([5]; month 1): 0.2 mass %
6-oxo-PGF1alpha content (HPLC) ([5]; month 3): 0.2 mass %
6-oxo-PGF1alpha content (HPLC) ([5]; month 6): 0.2 mass %
6-oxo-PGF1alpha content (HPLC) ([5]; month 9): 0.2 mass %
6-oxo-PGF1alpha content (HPLC) ([5]; month 12): 0.2 mass %
6-oxo-PGF1alpha content (HPLC) ([5]; month 18): 0.2 mass %
6-oxo-PGF1alpha content (HPLC) ([5]; month 24): 0.2 mass %
6-oxo-PGF1alpha content (HPLC) ([5]; month 36): 0.2 mass %
storage time (can be stored) ([5]; deep-freezer (−20±5° C.), lyophilisate with 4 mass % NaOH excess): at least 3 years
PGI2Na decomposition ([6]; 0.25 mass % NaOH added, sodium salt): 34.9 %/month and 34.6 %/month
PGI2Na decomposition ([6]; 2.5 mass % NaOH added, sodium salt): 10.9 %/month and 10.6 %/month
PGI2Na decomposition ([6]; 3.0 mass % NaOH added): 8.8 %/month
PGI2Na decomposition ([6]; 4.0 mass % NaOH added): 4.5 %/month
PGI2Na decomposition ([6]; 5.0 mass % NaOH added): 1.7 %/month
PGI2Na decomposition ([6]; 5.5 mass % NaOH added): 1.3 %/month
PGI2Na decomposition ([6]; 6.0 mass % NaOH added): 1.7 %/month
PGI2Na decomposition ([6]; 7.5 mass % NaOH added): 3.1 %/month
PGI2Na decomposition ([6]; 12.5 mass % NaOH added): 3.5 %/month

CCCCC[C@H](O)/C=C/[C@@H]1[C@H]2C/C(=C/CCCC(=O)O)O[C@H]2C[C@H]1O [prostacyclin]
half-life [7]: 3 to 4 min
